In patent publication US12410185B2, “Compounds targeting mutant calreticulin” (MYELOPRO DIAGNOSTICS AND RESEARCH GmbH, priority 2018, dated 2025):

Key:
[1] = system: Ba/F3-MPL CALR wild-type control; assay: apoptosis assay by Annexin V/PI staining; assay type: cell-based, mouse; details: 20 uM, 24 h
Protocol: (§1) Ba/F3-MPL CALR wild-type and mutant cell lines were treated with hematoxylin at 20 uM or the equivalent volume of DMSO for 24 h before collection. Annexin V Apoptosis Detection Kit (eBioscience, #88-8007-74) was used based on the manufacturer's instructions. 5 ul of Propidium Iodide Staining Solution (Invitrogen, #00-6990-50) was added to each sample for 10 min before being analyzed with the BD LSRFortessa™ cell analyzer without washing.

[2] = system: Ba/F3-MPL CALR mutated cell line; assay: apoptosis assay by Annexin V/PI staining; assay type: cell-based, mouse; details: 20 uM, 24 h
Protocol: as §1

mutant CALR protein = assay: binding assay (data not shown)
[3] = system: UT-7-TPO mutant cell lines; assay: 72 h dose response test, CellTiter-Glo cell viability assay; assay type: cell-based; details: UT-7-TPO cell lines, mutant vs wild-type
Text: Among 140.000 structures, a list of compounds with the highest binding energy and specificity towards calreticulin was generated. Relying on compounds that were either commercially available or available from the DTP Databases of the National Cancer Institute (NCI), a docking compound library including 41 compounds was assembled, […] CALR cell lines (FIGS. 5 and 6). […] Two hits were identified as preferentially inhibiting mutant CALR cell line growth. […] Therefore, hematoxylin and derivatives thereof were used for further testing.

[4] = system: CD34+ cells from CALR mutated patients; assay: colony formation assay; assay type: cell-based, human; details: 40 uM hematoxylin vs DMSO
Text: CD34-positive cells from healthy controls and CALR mutant patients were isolated by EasySep™ Human CD34 Positive Selection Kit (#18056; [sequence] Technologies) according to the manufacturer's instructions. StemSpan™ SFEM II (#09655 or #17856; [sequence] Technologies) supplemented with 1× StemSpan™ CD34+ Expansion Supplement (#02691; [sequence] Technologies) was used to culture and expand the isolated CD34-positive cells, preferably for no more than 8 days before experiments or storage. 1000 human CD34-positive cells were plated in 1 ml of Methocult classic medium ([sequence] Technologies, #H4434) with 40 uM hematoxylin or DMSO control. Cells were incubated for 14 days before colony counting. Statistical test was calculated using two-way ANOVA with Sidak's multiple comparisons test.

[5] = system: hematoxylin-resistant Ba/F3-MPL CALR mutant cell lines; assay: dose response test in hematoxylin-resistant cell lines; assay type: cell-based, mouse; details: lines selected under 20 uM hematoxylin for 4 weeks
Protocol: FIG. 21: Dose response of hematoxylin in Ba/F3-MPL resistant cell lines. Ba/F3-MPL CALR del79/WT and Ba/F3-MPL CALR del37/del37 were cultured with hematoxylin at a concentration of 20 uM for 4 weeks. CALR del79/WT resistant clone 1 and CALR del37/del37 resistant clone were cultured without cytokine. CALR del79/WT resistant clone 2 were cultured with 5% TPO.
Ba/F3-MPL CALR del79/WT and CALR del37/del37 cell lines were cultured with 20 uM of hematoxylin with or without 5% TPO continuously for 4 weeks. The cells were passaged every 3 days and seeded at 0.5 million per well in 6-well plates with addition of fresh hematoxylin and cytokine.

mutant calreticulin [6] = target: T1, mutant calreticulin (Mus musculus, UniProt P14211); assay: Western blot analysis of Ba/F3-MPL cell lines; assay type: cell-based; details: time-course
T1 construct: endogenous in cells; host or cells: Ba/F3-MPL CALR WT/del79 (heterozygous) and CALR del37/del37 (homozygous) cell lines and their hematoxylin-resistant clones
Protocol: (§2) 2 million Ba/F3-MPL CALR WT or mutant cells were treated with hematoxylin or the equivalent volume of DMSO in a total volume of 15 ml of RPMI media in T75 flasks (Thermal Fisher Scientific). Cells were collected and washed with PBS before being lysed in whole cell lysis buffer containing 20 mM HEPES, 20% glycerol, 50 mM KCl, 400 mM NaCl, 1 mM EDTA, 1 mM DTT, 5 mM Na orthovanadate, 0.5% NP40, 0.1% Tween 20, supplemented with cOmplete™, Mini, EDTA-free Protease Inhibitor Cocktail (Sigma) and PhosSTOP™ (Sigma). Samples were rotated at 4° C. for 20 min prior to centrifugation at […] for 20 min. The soluble fraction of the sample was collected. Protein concentration was quantified by the Bio-Rad Protein Assay (Bio-Rad) according to the manufacturer's instructions and measured by a SpectraMax Microplate Reader (Molecular Devices). Equal amounts of protein were loaded for 8% or 10% SDS-polyacrylamide gel electrophoresis prior to transfer to Amersham™ Protran® nitrocellulose membranes at 35V, 4° C. overnight. Membranes were then blocked by 5% bovine serum albumin fraction V (Sigma) or milk. Mutant calreticulin was detected by a polyclonal rabbit antibody against the mutant specific C-terminal peptide (Myelopro). The other primary antibodies used were as follows: Calregulin Antibody (F-4)(sc-373863 Santa Cruz), Anti-HSC70(B-6) (J2212, Santa Cruz), Anti-Stat5 (N20)(L1112, Santa Cruz), anti-pYSTAT5 (Tyr694)(71-6900, Life Technologies), anti-TPOR/cMpl (#6944, Millipore), Cleaved PARP (Asp214) (#9548, Cell Signaling). HRP-linked anti-mouse and anti-rabbit antibodies (NA931/4, GE Healthcare Life Sciences) were used as secondary antibodies. Clarity™ Western ECL Blotting Substrates (Biorad) were used for the chemiluminescence detection method.
(§3) To confirm that the cytotoxic selectivity of hematoxylin in CALR mutant cell lines is due to a specific effect on mutant calreticulin, Ba/F3-MPL CALR WT and mutant cell lines were treated with the compound for 24 hours. […]

mutant calreticulin [7] = assay: Western blot analysis of Ba/F3-MPL cell lines; assay type: cell-based, mouse; details: 20 uM, 24 hours, heterozygous and homozygous mutant cell lines
Protocol: as §2, §3

CALR wild-type cell line = assay: 72 h dose response of hematoxylin, analogues and control compounds; assay type: cell-based; details: 72 h assay; read-out: IC50 in wild-type cell line
Protocol: (§4) Ba/F3 and UT-7-TPO were plated 5.000 cells/well and 16.000 cells/well into 96-well plates with the desirable concentrations of compounds or cytokines added to a total volume of 100 ul. 72 hours later, the CellTiter-Glo luminescent Cell Viability Assay (Promega) was used to determine the cell viability. The luminescent signal was detected by a VICTOR Multilabel Plate Reader (PerkinElmer). Dose response data was analyzed by Graphpad Prism 7.0.
(§5) To further explore the chemical space of the compound, a few hematoxylin analogues were also tested (FIGS. 15 to 17). […] The compounds Protosappanin B (A-4) and RJ002 (B-2) were also tested. […] As a comparison, the clinically used chemotherapeutic drugs hydroxyurea and ruxolitinib were also tested in the cell models.

wild-type calreticulin = target: T2, wild-type calreticulin (Mus musculus, UniProt P14211); assay: Western blot analysis of Ba/F3-MPL cell lines; assay type: cell-based; details: 20 uM, 24 hours
T2 construct: endogenous in cells; host or cells: Ba/F3-MPL CALR WT and CALR WT/del79 cell lines
Protocol: as §2, with “The other primary antibodies used were as follows: Calregulin Antibody (F-4)(sc-373863 Santa Cruz), Anti-HSC70(B-6) (J2212, Santa Cruz), Anti-Stat5 (N20)(L1112, Santa Cruz), anti-pYSTAT5 (Tyr694)(71-6900, Life Technologies), anti-TPOR/cMpl (#6944, Millipore), Cleaved PARP (Asp214) (#9548, Cell Signaling). HRP-linked anti-mouse and anti-rabbit antibodies (NA931/4, GE Healthcare Life Sciences) were used as secondary antibodies. Clarity™ Western ECL Blotting Substrates (Biorad) were used for the chemiluminescence detection method.” left out

CALR mutant cell lines = assay: cells; details: 72 h, read-out: IC50 in mutant cell lines
Protocol: as §4, §5

T1 sequence (P14211 with tags, fused parts or gaps, stated change not applied): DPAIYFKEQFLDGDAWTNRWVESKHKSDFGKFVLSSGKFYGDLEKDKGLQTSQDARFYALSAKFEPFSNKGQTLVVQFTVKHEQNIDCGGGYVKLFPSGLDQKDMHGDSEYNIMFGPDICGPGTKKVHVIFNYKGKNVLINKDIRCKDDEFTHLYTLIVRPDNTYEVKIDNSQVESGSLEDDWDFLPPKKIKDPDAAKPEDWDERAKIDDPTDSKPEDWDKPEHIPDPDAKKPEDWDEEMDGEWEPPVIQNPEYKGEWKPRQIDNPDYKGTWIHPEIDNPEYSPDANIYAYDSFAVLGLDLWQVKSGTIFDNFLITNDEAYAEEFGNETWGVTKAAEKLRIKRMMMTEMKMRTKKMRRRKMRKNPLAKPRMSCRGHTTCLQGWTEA
T2 sequence (P14211 18-416): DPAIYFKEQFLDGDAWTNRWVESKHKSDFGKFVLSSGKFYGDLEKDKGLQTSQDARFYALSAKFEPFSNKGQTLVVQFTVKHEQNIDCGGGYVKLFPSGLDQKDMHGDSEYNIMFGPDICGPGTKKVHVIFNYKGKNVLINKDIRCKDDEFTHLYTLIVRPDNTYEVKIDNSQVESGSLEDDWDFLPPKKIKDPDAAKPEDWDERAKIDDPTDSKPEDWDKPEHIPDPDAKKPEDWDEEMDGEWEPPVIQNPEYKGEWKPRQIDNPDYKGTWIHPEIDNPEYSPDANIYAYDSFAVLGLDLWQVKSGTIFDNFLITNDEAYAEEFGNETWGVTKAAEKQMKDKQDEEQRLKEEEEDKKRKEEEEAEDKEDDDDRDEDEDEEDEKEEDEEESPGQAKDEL

Oc1cc2c(cc1O)[C@@H]1c3ccc(O)c(O)c3OC[C@]1(O)C2 [hematoxylin, Hematoxylin]
apoptotic cell numbers [1]: not in the wild-type control | apoptotic cell numbers [2]: significant elevation of apoptotic cell numbers | binding to mutant CALR protein (mutant CALR protein): bound | hypersensitivity of mutant cell lines to the compound [3]: hypersensitivity of mutant cell lines to the compound could be reproduced | number of colony forming units [4]: significantly reduced | viability of resistant cell lines in response to the treatment [5]: Increased viability | mutant calreticulin and MPL protein level (mutant calreticulin [6]; 8-hour time point): more drastic reduction | time to start of decrease of mutant calreticulin and MPL (mutant calreticulin [6]; Ba/F3-MPL CALR WT/del79): 4 h | mutant calreticulin protein level (mutant calreticulin [7]): striking down-regulation | IC50 (CALR wild-type cell line): 11.1 µM | wild-type calreticulin protein level (wild-type calreticulin; CALR WT cell line): not affected | wild-type calreticulin protein level (wild-type calreticulin; CALR heterozygous mutant cell line): up-regulation | IC50 (CALR mutant cell lines): 2.6 µM
